Assay results taken from ChEMBL document CHEMBL1201862, “PubChem BioAssay data set” (2004).
Activity calls are given as the source filed them.

Legend:
[1] = target: Glutathione-S-transferase (Schistosoma japonicum, UniProt Q26513); assay: GST-antibody interaction or FRET quenching – biochemical, TR-FRET, artefact control for Vif-APOBEC3G degradation inhibitor project, dose response (AID 1117362); format: functional
Protein Tat = target: T1, Protein Tat (Human immunodeficiency virus type 1 group M subtype B (isolate HXB2)(HIV-1), UniProt P04608); format: functional;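 note: tat binding to TAR RNA read out by fluorescence polarization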
T1 sequence (P04608 whole entry): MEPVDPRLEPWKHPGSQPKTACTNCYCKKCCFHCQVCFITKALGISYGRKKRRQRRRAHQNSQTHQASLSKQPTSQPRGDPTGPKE

Large T antigen = Large T antigen (Simian virus 40, UniProt P03070); format: functional, Betapolyomavirus macacae;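 note: Confirmatory-stage PubChem screen for compounds that inhibit SV40 T antigen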
Large T antigen, sequence (P03070 whole entry): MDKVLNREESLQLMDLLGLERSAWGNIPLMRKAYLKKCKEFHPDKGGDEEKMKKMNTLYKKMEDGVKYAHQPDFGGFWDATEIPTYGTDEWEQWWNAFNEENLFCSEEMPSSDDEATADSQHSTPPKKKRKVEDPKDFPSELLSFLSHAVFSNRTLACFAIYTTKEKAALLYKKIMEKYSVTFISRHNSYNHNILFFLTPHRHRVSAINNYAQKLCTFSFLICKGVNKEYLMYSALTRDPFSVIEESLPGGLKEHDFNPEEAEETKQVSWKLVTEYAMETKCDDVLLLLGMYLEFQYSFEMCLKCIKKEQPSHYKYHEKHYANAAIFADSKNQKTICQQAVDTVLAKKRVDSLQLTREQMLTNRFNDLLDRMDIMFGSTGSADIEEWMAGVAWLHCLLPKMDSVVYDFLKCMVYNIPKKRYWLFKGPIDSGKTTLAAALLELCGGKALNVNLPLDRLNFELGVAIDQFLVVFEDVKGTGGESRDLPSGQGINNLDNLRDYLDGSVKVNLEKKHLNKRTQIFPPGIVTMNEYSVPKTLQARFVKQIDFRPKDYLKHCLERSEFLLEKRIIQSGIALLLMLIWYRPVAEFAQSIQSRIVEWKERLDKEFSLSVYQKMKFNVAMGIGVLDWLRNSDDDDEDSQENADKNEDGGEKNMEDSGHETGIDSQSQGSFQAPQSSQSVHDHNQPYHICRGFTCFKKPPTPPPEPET

[2] = MITF Measured in Cell-Based System Using Plate Reader - 2084-01_Inhibitor_Dose_DryPowder_Activity_Set7.; format: functional
INS1 = assay: INS-1E survival protection against cytokine death – cell-based, luminescence, retest, dose response (AID 449756); format: functional; conditions: Rattus norvegicus;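 note: cell death triggered by IL-1 beta plus TNF-alpha plus IFN-gamma mixture; protective hits raise ATP signal compared with cytokine alone wells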
[3] = melanocyte viability loss, MITF-dependent cells, cell-based, plate reader, dry powder, cytotoxicity control, dose response (AID 651920); format: functional
[4] = growth inhibition of MALME3 cells – cell-based, CellTiter-Glo luminescence, dry powder, set 5, orthogonal assay for MITF inhibitor project, dose response (AID 651584); format: functional; conditions: MALME-3
[5] = cytotoxicity in MITF-independent A375 cells – cell-based, CellTiter-Glo luminescence, dry powder, set 4, counter-screen for MITF inhibitor project, dose response (AID 624364); format: functional; conditions: A-375;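 note: A375 melanoma cells are MITF independent so this is a counter screen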
[6] = MITF Measured in Cell-Based System Using Plate Reader - 2084-01_Inhibitor_Dose_DryPowder_Activity_Set6.; format: functional
[7] = MITF Orthogonal Assay: MALME3 CTG Assay Measured in Cell-Based System Using Plate Reader - 2084-04_Inhibitor_Dose_DryPowder_Activity_Set6.; format: functional; conditions: MALME-3
[8] = target: T2, Microphthalmia-associated transcription factor (Homo sapiens, UniProt O75030); assay: reducers of TRPM1 reporter luminescence, concentration series – cell-based, SK-MEL-5, cherry-picked, set 3, MITF inhibitor project, dose response (AID 493073); format: functional;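 note: SK-MEL-5 melanoma cells with luciferase driven by the MITF target TRPM1 promoter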
T2 sequence (O75030 whole entry): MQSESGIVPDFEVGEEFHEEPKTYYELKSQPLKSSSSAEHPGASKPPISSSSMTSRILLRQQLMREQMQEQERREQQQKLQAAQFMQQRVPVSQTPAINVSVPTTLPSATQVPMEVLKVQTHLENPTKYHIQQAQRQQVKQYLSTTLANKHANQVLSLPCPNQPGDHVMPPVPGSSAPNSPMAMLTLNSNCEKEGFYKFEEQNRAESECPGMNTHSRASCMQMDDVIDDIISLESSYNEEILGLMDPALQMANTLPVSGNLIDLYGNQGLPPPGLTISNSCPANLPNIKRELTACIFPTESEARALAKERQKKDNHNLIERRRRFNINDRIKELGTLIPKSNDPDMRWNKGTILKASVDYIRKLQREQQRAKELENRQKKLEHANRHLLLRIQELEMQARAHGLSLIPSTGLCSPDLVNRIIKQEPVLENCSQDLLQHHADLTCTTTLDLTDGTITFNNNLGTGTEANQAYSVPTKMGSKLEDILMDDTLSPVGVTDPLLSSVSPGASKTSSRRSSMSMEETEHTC

[9] = cytotoxicity in MITF-independent A375 cells – cell-based, CellTiter-Glo luminescence, dry powder, set 9, counter-screen for MITF modulator project, dose response (AID 651591); format: functional; conditions: A-375
[10] = viability loss in MITF-independent A375 cells – cell-based, CellTiter-Glo luminescence, dry powder, set 7, counter-screen for MITF inhibitor project, dose response (AID 624490); format: functional; conditions: A-375
[11] = MITF Orthogonal Assay: SK-MEL-5 CTG Assay Measured in Cell-Based System Using Plate Reader - 2084-02_Inhibitor_Dose_DryPowder_Activity_Set5.; format: functional
[12] = growth inhibition of SK-MEL-5 melanoma cells – cell-based, CellTiter-Glo luminescence, dry powder, set 8, orthogonal assay for MITF inhibitor project, dose response (AID 651586); format: functional
[13] = cytotoxicity in melanoma parental cells – cell-based, CellTiter-Glo, dry powder, set 6, MITF inhibitor project, dose response (AID 624429); format: functional; conditions: SK-MEL-5
Nonstructural protein 1 = Nonstructural protein 1 (Influenza A virus, UniProt Q194T2); format: functional, Influenza A virus (A/California/07/2009(H1N1))
Nonstructural protein 1, sequence (Q194T2 whole entry): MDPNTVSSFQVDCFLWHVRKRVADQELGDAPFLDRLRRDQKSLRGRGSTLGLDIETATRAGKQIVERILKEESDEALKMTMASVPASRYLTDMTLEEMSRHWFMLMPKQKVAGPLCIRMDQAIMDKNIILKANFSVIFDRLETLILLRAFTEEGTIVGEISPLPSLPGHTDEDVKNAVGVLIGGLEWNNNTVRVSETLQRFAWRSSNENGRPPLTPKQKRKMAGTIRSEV

[14] = inhibitors of TRPM1-promoter reporter in SK-MEL-5 – cell-based, luciferase, dry powder, set 9, MITF inhibitor project, dose response (AID 651588); format: functional
[15] = viability loss in MITF-independent A375 cells – cell-based, CellTiter-Glo luminescence, dry powder, set 6, counter-screen for MITF inhibitor project, dose response (AID 624488); format: functional; conditions: A-375
[16] = target: Neuropeptides B/W receptor type 1 (Homo sapiens, UniProt P48145); assay: Fluorescence-based dose response cell-based high throughput screening assay to identify antagonists of the G-protein coupled receptor 7 (GPR7). [Related pubchem assays: 1952 (Screening assay (GPR7 antagonists).), 1880 (Summary AID.)]; format: functional
Neuropeptides B/W receptor type 1, sequence (P48145 whole entry): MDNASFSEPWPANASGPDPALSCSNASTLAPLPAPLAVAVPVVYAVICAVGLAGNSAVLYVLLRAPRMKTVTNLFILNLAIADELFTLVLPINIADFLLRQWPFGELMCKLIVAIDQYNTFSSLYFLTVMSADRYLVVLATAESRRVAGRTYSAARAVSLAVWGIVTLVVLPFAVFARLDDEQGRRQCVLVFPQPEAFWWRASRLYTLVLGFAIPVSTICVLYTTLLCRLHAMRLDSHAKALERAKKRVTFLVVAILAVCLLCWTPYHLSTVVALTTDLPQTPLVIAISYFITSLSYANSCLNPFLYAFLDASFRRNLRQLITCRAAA

[17] = target: T3, Heat shock factor protein 1 (Mus musculus, UniProt P38532); assay: decrease of HSF1-responsive luciferase luminescence – cell-based, NIH3T3, dose retest, confirmation (AID 2382); format: functional;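 note: NIH3T3 fibroblasts with HSF1-driven luciferase reporter stressed by proteasome inhibitor MG132; luminescence from HSF1-driven luciferase expression after 8 hours of MG132 stress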
T3 sequence (P38532 whole entry): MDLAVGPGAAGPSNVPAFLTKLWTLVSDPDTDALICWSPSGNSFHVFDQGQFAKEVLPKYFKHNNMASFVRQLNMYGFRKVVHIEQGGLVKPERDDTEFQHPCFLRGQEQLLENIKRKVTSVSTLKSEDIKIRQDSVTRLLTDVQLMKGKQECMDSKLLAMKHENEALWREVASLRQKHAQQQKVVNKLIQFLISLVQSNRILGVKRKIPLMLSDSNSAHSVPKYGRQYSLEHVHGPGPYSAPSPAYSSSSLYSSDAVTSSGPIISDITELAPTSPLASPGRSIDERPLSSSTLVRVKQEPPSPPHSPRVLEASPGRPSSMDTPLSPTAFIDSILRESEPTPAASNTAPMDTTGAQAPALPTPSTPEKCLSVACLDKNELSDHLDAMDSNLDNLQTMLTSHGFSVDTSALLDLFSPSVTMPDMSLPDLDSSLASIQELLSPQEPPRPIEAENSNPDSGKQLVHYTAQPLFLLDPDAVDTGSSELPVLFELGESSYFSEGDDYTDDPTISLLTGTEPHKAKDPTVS

[18] = target: Melanin-concentrating hormone receptor 1 (Homo sapiens, UniProt Q99705); assay: Fluorescence-based counterscreen for antagonists of the G-protein coupled receptor 7 (GPR7): cell-based high throughput dose response assay to identify antagonists of the melanin-concentrating hormone receptor 1 (MCHR1).; format: functional
Melanin-concentrating hormone receptor 1, sequence (Q99705 whole entry): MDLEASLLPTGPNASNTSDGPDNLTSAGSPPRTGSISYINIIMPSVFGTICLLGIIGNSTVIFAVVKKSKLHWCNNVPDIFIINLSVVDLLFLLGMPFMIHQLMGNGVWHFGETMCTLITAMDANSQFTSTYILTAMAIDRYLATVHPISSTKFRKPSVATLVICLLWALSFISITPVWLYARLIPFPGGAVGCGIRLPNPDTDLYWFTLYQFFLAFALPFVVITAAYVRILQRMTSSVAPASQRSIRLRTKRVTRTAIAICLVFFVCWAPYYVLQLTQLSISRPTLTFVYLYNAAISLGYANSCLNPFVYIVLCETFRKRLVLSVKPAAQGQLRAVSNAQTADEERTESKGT

[19] = target: T4, E3 ubiquitin-protein ligase XIAP (Homo sapiens, UniProt P98170); assay: small molecules displacing peptide from XIAP – biochemical, IAP family, fluorescence polarization (AID 1018); format: functional
T4 sequence (P98170 whole entry): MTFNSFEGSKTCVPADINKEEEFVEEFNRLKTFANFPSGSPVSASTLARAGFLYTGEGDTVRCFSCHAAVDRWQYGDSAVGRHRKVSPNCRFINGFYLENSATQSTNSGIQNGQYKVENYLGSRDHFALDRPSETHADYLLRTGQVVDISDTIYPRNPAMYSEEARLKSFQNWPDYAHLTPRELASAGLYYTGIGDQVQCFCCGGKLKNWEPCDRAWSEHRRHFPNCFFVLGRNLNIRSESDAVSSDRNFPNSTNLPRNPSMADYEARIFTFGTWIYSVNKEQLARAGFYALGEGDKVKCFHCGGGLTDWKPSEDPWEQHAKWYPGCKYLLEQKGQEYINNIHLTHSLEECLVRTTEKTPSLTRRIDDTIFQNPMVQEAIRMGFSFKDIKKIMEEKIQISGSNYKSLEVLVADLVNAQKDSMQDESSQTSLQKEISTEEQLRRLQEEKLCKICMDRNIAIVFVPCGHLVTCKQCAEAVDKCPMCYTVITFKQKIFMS

H9c2 = assay: cells; format: functional, cell-based; conditions: Rattus norvegicus, H9c2, Myocardium
[20] = Luminescent dose response cell-based high throughput screening assay for inhibitors of the Janus kinase 2 mutant JAK2V617F. [Related pubchem assays: 1446 (Primary screen.), 1521 (Confirmation assay.), 1486 (Counter screen.)]; format: functional
[21] = target: T4, E3 ubiquitin-protein ligase XIAP; assay: Counter Screen using XIAP-Bir3 for Chemical Antagonists of Bir1/2 domains of IAP-family anti-apoptotic proteins. [Related pubchem assays (depositor defined):AID1018, AID1449, AID1514, AID1638, AID1749, AID1750, AID488957, AID488963]
[22] = glucagon-like peptide-1 release potency in STC-1, concentration-response, half-maximal inhibitory concentration in the STC-1 line (AID 1117345); format: functional, cell-based
[23] = IC50 of insulin release inhibition, rat insulinoma INS-1E line, 5 mM glucose, cell-based (AID 1117331); format: functional
[24] = Potency on glucagon-like peptide 1 release, dose-response in NCI-H716 cell line, half maximal inhibitory concentration (AID 1117344); format: functional, cell-based
cells = format: functional, cell-based; conditions: INS-1E
[25] = cytotoxicity toward HT-29 cells – cell-based, CellTiter-Glo luminescence, IC50, dose response (AID 1117330); format: functional
[26] = cytotoxicity toward HCT116 cells – cell-based, CellTiter-Glo luminescence, IC50, dose response (AID 1117332); format: functional; conditions: HCT-116
[27] = HCT116 cell viability decrease, GSK3B pretreatment – CellTiter-Glo, IC50, dose response (AID 1117339); format: functional; conditions: HCT-116
[28] = cytotoxicity toward Colo320 cells – cell-based, CellTiter-Glo luminescence, IC50, dose response (AID 1117334); format: functional; conditions: COLO 320
[29] = SNU-C1 cell viability reduction, dose response, CellTiter-Glo luminescence (AID 1117323); format: functional, cell-based
[30] = CellTiter-Glo luminescence survival assay, SW480 colon tumor line, concentration-response curve, half-maximal inhibitory concentration (AID 1117338); format: functional
[31] = RKO cell viability reduction, dose response, CellTiter-Glo luminescence (AID 1117322); format: functional
[32] = Reduced DLD-1 viability, concentration-response, CellTiter-Glo luminescence (AID 1117352); format: functional

Glutathione-S-transferase, sequence (Q26513 whole entry): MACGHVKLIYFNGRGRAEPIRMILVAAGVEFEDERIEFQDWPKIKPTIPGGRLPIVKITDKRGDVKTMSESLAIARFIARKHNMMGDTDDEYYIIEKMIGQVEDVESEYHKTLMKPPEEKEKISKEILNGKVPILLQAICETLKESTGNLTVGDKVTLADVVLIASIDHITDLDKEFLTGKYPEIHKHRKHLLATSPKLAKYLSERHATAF

## CC(=O)N1CCN(c2ccc(NCc3ccc(C)s3)cc2)CC1
[1]
  IC50: 29.7 µM (active)
Protein Tat
  IC50: > 100 µM (active)
Large T antigen
  IC50: 3.48 µM (active)

## COC1=C(Nc2ccccc2)C(=O)c2ccccc2C1=O
[2]
  AC50: 7.24 µM (active)
INS1
  AC50: 5.64 µM (active)
[3]
  AC50: 41.9 µM (active)
[4]
  AC50: 12.5 µM (active)
[5]
  AC50: > 70 µM (inactive)
[6]
  AC50: 5.17 µM (active)
[7]
  AC50: 12.5 µM (active)
[8]
  AC50: 4.53 µM (active)
[9]
  AC50: > 70 µM (inactive)
[10]
  AC50: 41.5 µM (active)
[11]
  AC50: 3.1 µM (active)
[12]
  AC50: 6.45 µM (active)
[13]
  AC50: 3.54 µM (active)
Nonstructural protein 1
  IC50: 12 µM (active)
[14]
  AC50: 13.9 µM (active)
[15]
  AC50: 43.4 µM (active)

## CCCC(CCC)C(=O)Nc1ccc2c(c1)N(C(=O)CCN1CCN(C)CC1)c1ccccc1CC2
[16]
  IC50: 7.8 µM (active)
[17]
  EC50: > 195 µM (not active)
[18]
  IC50: 15.7 µM (not active)

## COC(=O)/C=C/c1ccc(OC(=O)OC)c(OC(=O)OC)c1
[19]
  IC50: > 100 µM (not active)
H9c2
  IC50: > 79 µM (inactive)
Large T antigen
  IC50: 12.1 µM (active)
[20]
  IC50: 2.64 µM (active)
[21]
  IC50: > 100 µM (inactive)

## CC(C)(C)CC(C)(C)c1ccc(O)c(Cc2ccc(Cl)cc2Cl)c1 [CLOFOCTOL]
[22]
  IC50: 0.544 µM (active)
[23]
  IC50: > 33.3 µM (inactive)
[24]
  IC50: 9.07 µM (inactive)

## Oc1ccccc1 [PHENOL]
[23]
  IC50: > 33.3 µM (inactive)
cells
  IC50: > 33.3 µM (inactive)

## Cc1nnc(NS(=O)(=O)c2ccc(N)cc2)s1 [SULFAMETHIZOLE]
[25]
  IC50: > 20 µM (inactive)
[26]
  IC50: > 20 µM (inactive)
[27]
  IC50: > 20 µM (inactive)
[28]
  IC50: > 20 µM (inactive)
[29]
  IC50: > 20 µM (inactive)
[30]
  IC50: > 20 µM (inactive)
[31]
  IC50: > 20 µM (inactive)
[32]
  IC50: > 20 µM (inactive)
